Assay results: ChEMBL document CHEMBL1146143, “New ligand-based approach for the discovery of antitrypanosomal compounds” (2006)

Tests used:
[1] = tested on: J774; experiment: Unspecific cytotoxicity against murine J774 macrophages at 100 ug/ml; assay type: functional, Mus musculus
[2] = tested on: Trypanosoma cruzi; experiment: Antitrypanosomal activity against Trypanosoma cruzi epimastigotes at 10 ug/ml; assay type: functional
[3] = tested on: J774; experiment: Unspecific cytotoxicity against murine J774 macrophages at 10 ug/ml; assay type: functional, Mus musculus
[4] = tested on: Mus musculus; experiment: Antitrypanosomal activity against Trypanosoma cruzi infected NMRI mice at 50 mg/kg/day; assay type: functional
[5] = tested on: J774; experiment: Unspecific cytotoxicity against murine J774 macrophages at 1 ug/ml; assay type: functional, Mus musculus
[6] = tested on: Trypanosoma cruzi; experiment: Antitrypanosomal activity against Trypanosoma cruzi amastigotes at 100 ug/ml; assay type: functional
[7] = tested on: Trypanosoma cruzi; experiment: Antitrypanosomal activity against Trypanosoma cruzi epimastigotes at 1 ug/ml; assay type: functional
[8] = tested on: Trypanosoma cruzi; experiment: Antitrypanosomal activity against Trypanosoma cruzi epimastigotes at 100 ug/ml; assay type: functional
[9] = tested on: Trypanosoma cruzi; experiment: Antitrypanosomal activity against Trypanosoma cruzi amastigotes at 10 ug/ml; assay type: functional
[10] = tested on: Trypanosoma cruzi; experiment: Antitrypanosomal activity against Trypanosoma cruzi amastigotes at 1 ug/ml; assay type: functional

For `CN1CC(=O)N(C)c2cc([N+](=O)[O-])ccc21`, the Activity [1] was 0%, the Activity [2] was 21.6% and the Activity [3] was 0%. It also gave an Activity [4] of 60.7%, an Activity [5] of 0% and an Activity [6] of 85.4%. The Activity [7] was 22.5% and the Activity [8] was 72.7%.
For `O=C1Nc2cc([N+](=O)[O-])ccc2N2CCCCC12` (stereo not given), the Activity [1] was 34.2%, the Activity [2] was 30.9% and the Activity [3] was 5.6%. The Activity [5] was 2.4%, the Activity [7] was 3.9% and the Activity [8] was 77%.
In the case of `O=C1Nc2cc([N+](=O)[O-])ccc2N2Cc3ccccc3CC12` (stereo not given), the Activity [1] is reported as 50.4%, the Activity [2] is reported as 29.4% and the Activity [3] is reported as 0%. For the same molecule, the Activity [5] was 0%, the Activity [7] was 19.4% and the Activity [8] was 72.1%.
In the case of `CN1C(=O)C[N+](C)(C)c2ccc([N+](=O)[O-])cc21.[Cl-]`, the Activity [1] is reported as 64.8%, the Activity [2] is reported as 9% and the Activity [3] is reported as 10.5%. For the same molecule, the Activity [5] was 9.8%, the Activity [7] was 0.9% and the Activity [8] was 67.2%.
Work on `O=C1CN(CCCCCCCl)c2ccc([N+](=O)[O-])cc2N1` yielded an Activity [1] of 97.4%, an Activity [2] of 72.1% and an Activity [3] of 32.9%. It also gave an Activity [9] of 100%, an Activity [5] of 16.6% and an Activity [7] of 23.2%. It also gave an Activity [8] of 90.9%.
Work on `O=C(CN1CCCCC1)Nc1cc([N+](=O)[O-])ccc1Cl` yielded an Activity [2] of 1.3%, an Activity [7] of 21.9% and an Activity [8] of 11%.
`O=C(CN1CCCCC1)Nc1cc([N+](=O)[O-])ccc1F` showed an Activity [2] of 4.4%, an Activity [7] of 0% and an Activity [8] of 14.3%.
`O=C(CCl)Nc1cc([N+](=O)[O-])ccc1N1CCCCC1` showed an Activity [1] of 24.9%, an Activity [2] of 34.8% and an Activity [3] of 6.3%. It also gave an Activity [5] of 8.1%, an Activity [7] of 7.1% and an Activity [8] of 84%.
`O=C1Nc2cc([N+](=O)[O-])ccc2N2CCCC12` (stereo not given) gave an Activity [1] of 23.6%, an Activity [2] of 70.3% and an Activity [3] of 0%. The Activity [9] was 13.3%, the Activity [5] was 0% and the Activity [6] was 30.2%. For the same molecule, the Activity [7] was 25.6% and the Activity [8] was 90.5%.
`CN1C(=O)CN(CCCCCCl)c2ccc([N+](=O)[O-])cc21` was tested, and the Activity [1] was 99.5%, the Activity [2] was 82.2% and the Activity [3] was 17.8%. For the same molecule, the Activity [5] was 0%, the Activity [7] was 15% and the Activity [8] was 83.3%.
In the case of `O=C(Cn1ccnc1[N+](=O)[O-])NCc1ccccc1` [BENZNIDAZOLE], the Activity [1] is reported as 1.4%, the Activity [3] is reported as 1.6% and the Activity [9] is reported as 9.2%. For the same molecule, the Activity [5] was 1.9%, the Activity [6] was 96.6% and the Activity [10] was 83.2%.
With `CC1CS(=O)(=O)CCN1/N=C/c1ccc([N+](=O)[O-])o1` (stereo not given) [NIFURTIMOX] the Activity [1] was 25.9%, the Activity [2] was 90% and the Activity [3] was 0.6%. The Activity [4] was 100%, the Activity [9] was 94.4% and the Activity [5] was 0%. It also gave an Activity [6] of 100%, an Activity [7] of 75.5% and an Activity [8] of 98.7%. It also gave an Activity [10] of 88.1%.
